Assay results as given in patent US8058228B2, “Leptin peptide antagonists” (Boston Biomedical Research Institute, priority 2004, dated 2011).

Test system: OB-R
Assay: Competitive binding of 125I-human leptin to OB-R in rabbit endometrial cell lysates
Experimental: ^125I-human leptin served as ligand and LPA-2 and LPA-2Sc as competitors for the binding to OB-R in cellular extracts. All compounds were diluted in assay buffer (50 mM Tris and 100 mM NaCl, pH 8.5) to promote proper re-folding. Each assay tube contained 50 μl of cellular lysate (100 μg protein from 10^6 cells cultured for two days in basal medium), 50 μl of ^125I-human leptin (100.000 cpm), and 50 μl of LPAs (providing 10^−5-10^−14 M/tube). The tubes were incubated for 24 h at room temperature. Then, 250 μl of 1% BSA (w/v) and 500 μl of 20% polyethylene glycol (w/v) in PBS were added and the tubes were incubated for an additional 12-h period at 4° C. The tubes were centrifuged at 12.000 g for 15 min at 4° C. After careful aspiration of supernatant and complete drying of the tube-walls with filter paper, ^125I-human leptin binding in the precipitates was measured (Beckman 5000, counter). The binding of ^125I-leptin to OB-R in absence of LPAs was set at 100%, and LPA competitive binding values were expressed as percentages of total cpm. Affinity binding constants for LPAs were calculated from the competition curves.

## SRNVIQISNDLENLRDLLHVLAFSKS [LPA-2, 26 amino acid peptide, residues 70-95 of helix III of the human leptin molecule; leptin peptide antagonist]
Cellular lysates of rabbit endometrial cells
  competition with 125I-leptin for binding to OB-R: displaced
Competition with 125I-leptin, OB-R expressed by rabbit endometrial cells (rEEC and rESC), protein extracts
  Ki: ~60 pM
